Experimental data from US20260138959A1, “QUINAZOLINE DERIVATIVE COMPOUND AND USE THEREOF” (VORONOI INC., priority 2021, published 2026).
Read-outs that look alike come from different tables or passages of the source.

How the values were obtained:
[1] = tested on: Ba/F3-c-KIT(D816V); assay: Proliferation inhibitory activity on Ba/F3 cell (CellTiter-Glo, 72 hours), c-KIT(D816V); type: cell-based
Experimental: (§1) Ba/F3-TEL-PDGFRα(WT), Ba/F3-TEL-PDGFβ(WT), Ba/F3-c-KIT(D816V) (Kyinno, #KC-0138), c-KIT V560G/D816V, c-KIT D814Y were seeded at 3×10^3/100 μl/well in a clear bottom white 96-well plate. A culture solution containing compounds of 12 concentrations (0.00001-2 mM) serially diluted in 3 folds and the DMSO control group was added at 0.5 μl/well each to a final concentration of 0.00005-10 μM, and then incubated in a CO2 incubator at 37° C. for 72 hours. After 72 hours, the plate treated with the compound was taken out, CellTiter-Glo® Assay (Promega) solution was treated with 100 μl/well, followed by mixing well. After mixing well for about 10 minutes at room temperature, […] was measured using a microplate reader. The data were presented as percentages in proportion to treated cells based on the vehicle, GI50 (nM) values were calculated using GraphPad Prism 8.3.0 (GraphPad software Inc., San Diego).
(§2) The inhibitory activities of Ba/F3 expressing PDGFR-α, PDGFR-β, c-KIT(D816V), c-KIT V560G/D816V, and c-KIT D814Y measured as described above were measured and shown in Table 7 below (A: GI50≤200 nM; B: 200 nM<GI50≤500 nM; C: GI50>500 nM).

[2] = tested on: c-KIT V560G/D816V; assay: Proliferation inhibitory activity on Ba/F3 cell (CellTiter-Glo, 72 hours), c-KIT V560G/D816V; type: cell-based; conditions: read-out: Cell (nM) c-KIT V560G/D816V (GI50 class)
Experimental: as §1, §2

[3] = Mus musculus, BaF3, read-out: Ba/F3 (nM) c-KIT (D816V) (GI50 class)
[4] = Mus musculus, BaF3, c-KIT V560G/D816V cells

GI50 [1, 3] | GI50 [2, 4] | GI50 ([1]; read-out: Ba/F3 (nM) c-KIT (D816V) (GI50 class)) | GI50 ([2]; c-KIT V560G/D816V cells) | Compound
≤ 200 nM | 200 to 500 nM | – | – | COc1cc2c(-c3ccc(NC(=O)Cc4cccc(C(F)(F)F)c4)cc3)ncnc2cc1OCC1CCNCC1 [Example 60, N-(4-(6-methoxy-7-(piperidin-4-ylmethoxy)quinazolin-4-yl)phenyl)-2-(3-(trifluoromethyl)phenyl)acetamide]
– | – | ≤ 200 nM | > 500 nM | N-(4-(7-methoxy-6-(pyridin-3-ylmethoxy)quinazolin-4-yl)phenyl)-2-(4-trifluoromethyl)phenyl)acetamide [Example 157]
≤ 200 nM | ≤ 200 nM | – | – | CCN1CCC(COc2cc3ncnc(-c4ccc(NC(=O)Cc5ccc(C(F)(F)F)c(F)c5)cc4)c3cc2OC)CC1 [Example 80, N-(4-(7-((1-ethylpiperidin-4-yl)methoxy)-6-methoxyquinazolin-4-yl)phenyl)-2-(3-fluoro-4-(trifluoromethyl)phenyl)acetamide]
≤ 200 nM | ≤ 200 nM | – | – | COc1cc2c(-c3ccc(NC(=O)Cc4ccc(C(F)(F)F)cc4)cc3)ncnc2cc1OCc1cccnc1 [Example 29, N-(4-(6-methoxy-7-(pyridin-3-ylmethoxy)quinazolin-4-yl)phenyl)-2-(4-(trifluoromethyl)phenyl)acetamide]
≤ 200 nM | ≤ 200 nM | – | – | COc1cc2c(-c3ccc(NC(=O)Cc4ccc(C(F)(F)F)cc4)cc3)ncnc2cc1OCCCN1CCN(C(C)=O)CC1 [Example 141, N-(4-(7-(3-(4-acetylpiperazin-1-yl)propoxy)-6-methoxyquinazolin-4-yl)phenyl)-2-(4-(trifluoromethyl)phenyl)acetamide]
≤ 200 nM | 200 to 500 nM | – | – | COc1cc2c(-c3ccc(NC(=O)Cc4ccc(Cl)c(C(F)(F)F)c4)cc3)ncnc2cc1OCC1CCNCC1 [Example 77, 2-(4-chloro-3-(trifluoromethyl)phenyl)-N-(4-(6-methoxy-7-(piperidin-4-ylmethoxy)quinazolin-4-yl)phenyl)acetamide]
≤ 200 nM | > 500 nM | – | – | COc1cc2ncnc(-c3ccc(NC(=O)Cc4ccc(C(F)(F)F)cc4)cc3)c2cc1OC1CCNC1 (stereo not drawn) [Example 139, N-(4-(7-methoxy-6-(pyrrolidin-3-yloxy)quinazolin-4-yl)phenyl)-2-(4-(trifluoromethyl)phenyl)acetamide]
≤ 200 nM | 200 to 500 nM | – | – | COc1cc2ncnc(-c3ccc(NC(=O)Cc4ccc(C(F)(F)F)cc4)cc3)c2cc1OCCCN1C[C@H]2C[C@@H]1CN2C [Example 159, N-(4-(7-methoxy-6-(3-((1R,4R)-5-methyl-2,5-diazabicyclo[2.2.1]heptane-2-yl)propoxy)quinazolin-4-yl)phenyl)-2-(4-(trifluoromethyl)phenyl)acetamide]
≤ 200 nM | ≤ 200 nM | – | – | COc1cc2c(-c3ccc(NC(=O)Cc4ccc(C(F)(F)F)cc4)cc3)ncnc2cc1OCCCN1CCN2CCCC2C1 (stereo not drawn) [Example 33, N-(4-(7-(3-(hexahydropyrrolo[1,2-a]pyrazin-2(1H)-yl)propoxy)-6-methoxyquinazolin-4-yl)phenyl)-2-(4-(trifluoromethyl)phenyl)acetamide]
≤ 200 nM | > 500 nM | – | – | COc1cc2c(-c3ccc(NC(=O)Cc4ccc(C(F)(F)F)cc4)cc3)ncnc2cc1OC[C@@H]1CCN(C(=O)OC(C)(C)C)C1 [Example 35, tert-butyl (R)-3-(((6-methoxy-4-(4-(2-(4-(trifluoromethyl)phenyl)acetamido)phenyl)quinazolin-7-yl)oxy)methyl)pyrrolidin-1-carboxylate]
≤ 200 nM | ≤ 200 nM | – | – | CCN1CCC(Oc2cc3c(-c4ccc(NC(=O)Cc5ccc(C(F)(F)F)cc5)cc4)ncnc3cc2OC)CC1 [Example 123, N-(4-(6-((1-ethylpiperidin-4-yl)oxy)-7-methoxyquinazolin-4-yl)phenyl)-2-(4-(trifluoromethyl)phenyl)acetamide]
≤ 200 nM | > 500 nM | – | – | COc1cc2c(-c3ccc(NC(=O)Cc4ccc(C(F)(F)F)cc4)cc3)ncnc2cc1OC[C@H]1CCN(C(=O)OC(C)(C)C)C1 [Example 36, tert-butyl (S)-3-(((6-methoxy-4-(4-(2-(4-(trifluoromethyl)phenyl)acetamido)phenyl)quinazolin-7-yl)oxy)methyl)pyrrolidin-1-carboxylate]
≤ 200 nM | ≤ 200 nM | – | – | COCCN1CCCC(COc2cc3ncnc(-c4ccc(NC(=O)Cc5ccc(C(F)(F)F)cc5)cc4)c3cc2OC)C1 (stereo not drawn) [Example 42, N-(4-(6-methoxy-7-((1-(2-methoxyethyl)piperidin-3-yl)methoxy)quinazolin-4-yl)phenyl)-2-(4-(trifluoromethyl)phenyl)acetamide]
≤ 200 nM | > 500 nM | – | – | COc1ccc(CN2CC(Oc3cc4ncnc(-c5ccc(NC(=O)Cc6ccc(C(F)(F)F)cc6)cc5)c4cc3OC)C2)cc1 [Example 27, N-(4-(6-methoxy-7-((1-(4-methoxybenzyl)azetidin-3-yl)oxy)quinazolin-4-yl)phenyl)-2-(4-(trifluoromethyl)phenyl)acetamide]
≤ 200 nM | 200 to 500 nM | – | – | COc1cc2c(-c3ccc(NC(=O)Cc4ccc(C(F)(F)F)cc4)cc3)ncnc2cc1OCCCCl [Example 23, N-(4-(7-(3-chloropropoxy)-6-methoxyquinazolin-4-yl)phenyl)-2-(4-(trifluoromethyl)phenyl)acetamide]
≤ 200 nM | ≤ 200 nM | – | – | COc1cc2c(-c3ccc(NC(=O)Cc4ccc(C(F)(F)F)cc4)cc3)ncnc2cc1OCCCN1CCn2c(nnc2C(F)(F)F)C1 [Example 34, N-(4-(6-methoxy-7-(3-(3-(trifluoromethyl)-5,6-dihydro-[1,2,4]triazolo[4,3-a]pyrazin-7(8H)-yl)propoxy)quinazolin-4-yl)phenyl)-2-(4-(trifluoromethyl)phenyl)acetamide]
≤ 200 nM | ≤ 200 nM | – | – | COc1cc2c(-c3ccc(NC(=O)Cc4ccc(C(F)(F)F)cc4)cc3)ncnc2cc1OC[C@@H]1CCCNC1 [Example 73, (R)-N-(4-(6-methoxy-7-(piperidin-3-ylmethoxy)quinazolin-4-yl)phenyl)-2-(4-(trifluoromethyl)phenyl)acetamide]
≤ 200 nM | 200 to 500 nM | – | – | COc1cc2ncnc(-c3ccc(NC(=O)Cc4ccc(C(F)(F)F)cc4)cc3)c2cc1O[C@H]1CCCO1 [Example 156, (S)-N-(4-(7-methoxy-6-((tetrahydrofuran-2-yl)oxy)quinazolin-4-yl)phenyl)-2-(4-(trifluoromethyl)phenyl)acetamide]
≤ 200 nM | > 500 nM | – | – | COCCN1CC(Oc2cc3ncnc(-c4ccc(NC(=O)Cc5ccc(C(F)(F)F)cc5)cc4)c3cc2OC)C1 [Example 28, N-(4-(6-methoxy-7-((1-(2-methoxyethyl)azetidin-3-yl)oxy)quinazolin-4-yl)phenyl)-2-(4-(trifluoromethyl)phenyl)acetamide]
≤ 200 nM | ≤ 200 nM | – | – | COc1cc2ncnc(-c3ccc(NC(=O)Cc4ccc(C(F)(F)F)cc4)cc3)c2cc1OCCCN1CCCC1 [Example 160, N-(4-(7-methoxy-6-(3-(pyrrolidin-1-yl)propoxy)quinazolin-4-yl)phenyl)-2-(4-(trifluoromethyl)phenyl)acetamide]
≤ 200 nM | ≤ 200 nM | – | – | CCN1CCC(COc2cc3ncnc(-c4ccc(NC(=O)Cc5ccc(Cl)c(C(F)(F)F)c5)cc4)c3cc2OC)CC1 [Example 78, 2-(4-chloro-3-(trifluoromethyl)phenyl)-N-(4-(7-((1-ethylpiperidin-4-yl)methoxy)-6-methoxyquinazolin-4-yl)phenyl)acetamide]
